Assay [1] deals with P388. The assay is described as follows: Cytotoxicity against P388 leukemia. The format is functional, cell-based. Particulars: Mus musculus.
Assay [2] can be described thus: Inhibition of DNA topoisomerase II from rat liver measured as 50% reduction in the amount of minicircle DNA relative to the control.
The target in assay [3] is Tubulin (Bos taurus, UniProt Q6B856+Q862L2+Q862F3). The assay is described as follows: Drug concentration needed to produce a 50% reduction of bovine brain tubulin polymerization relative to the control.
Assay [4] deals with L1210. The assay is described as follows: Antitumor activity in vivo expressed as the percentage increase in life span at the dose of 10 (mg/kg/day). The format is functional, Mus musculus.
The test system of assay [5] is L1210. The experiment in a line: The number of mice survived for 30 days at the dose of 10 (mg/kg/day). The format is functional, Mus musculus.

A word on the IC50: it is the point on the concentration scale where inhibition reaches its midpoint. A low value points to greater potency.

Consider `COc1cc([C@@H]2c3cc4c(cc3[C@@H](CC(=O)O)C3COC(=O)[C@@H]32)OCO4)cc(OC)c1O` (stereo partly drawn), for which half-maximal inhibition in assay [1] (IC50) required 15 µM.
Regarding `COc1cc([C@@H]2c3cc4c(cc3[C@@H](CCN(C)CCO)C3COC(=O)[C@@H]32)OCO4)cc(OC)c1O.Cl` (stereo partly drawn), the results for the IC50 in assay [1], in assay [2] and in assay [3] were 0.07 µM, 17.2 µM and over 100 µM, respectively.
As for `COc1cc([C@@H]2c3cc4c(cc3[C@@H](CCCN(C)C)C3COC(=O)[C@@H]32)OCO4)cc(OC)c1O.Cl` (stereo partly drawn), the values for the IC50 in assay [1], in assay [2] and in assay [3] were 0.012 µM, 73.5 µM and over 167 µM, respectively.
Taken in the same sequence, the figures for `COc1cc([C@@H]2c3cc4c(cc3[C@@H](CC(=O)N3CCC(N5CCCCC5)CC3)C3COC(=O)[C@@H]32)OCO4)cc(OC)c1O.Cl` (stereo partly drawn) were 0.0084 µM, 266 µM and over 100 µM.
Taken in the same sequence, the figures for `COc1cc([C@@H]2c3cc4c(cc3[C@@H](CC(=O)NCCN3CCCCC3)C3COC(=O)[C@@H]32)OCO4)cc(OC)c1O.Cl` (stereo partly drawn) were 3 µM, 60.6 µM and over 100 µM.
With `COc1cc([C@@H]2c3cc4c(cc3[C@@H](CCN(C)Cc3ccccc3)C3COC(=O)[C@@H]32)OCO4)cc(OC)c1O.Cl` (stereo partly drawn), the results for the concentration for half-maximal inhibition (IC50) in assay [1], in assay [2] and in assay [3] were 0.15 µM, 97.3 µM and over 167 µM, respectively. In addition, the ILS max in assay [4] is recorded as 53%. Moreover, the Survivors in assay [5] came out at 0.
For `COc1cc([C@@H]2c3cc4c(cc3[C@@H](CCN3CCOCC3)C3COC(=O)[C@@H]32)OCO4)cc(OC)c1O.Cl` (stereo partly drawn), in that order: 0.026 µM, 58.3 µM, over 167 µM, 81% and 0.
On to `COc1cc([C@@H]2c3cc4c(cc3[C@@H](CC(=O)N(C)CCN(C)C)C3COC(=O)[C@@H]32)OCO4)cc(OC)c1O.Cl` (stereo partly drawn), for which the values for the IC50 in assay [1], in assay [2] and in assay [3] were 0.032 µM, 252 µM and over 100 µM, respectively.
In assay [1], `COc1cc([C@@H]2c3cc4c(cc3[C@@H](CCN(C)N(C)c3ccccc3)C3COC(=O)[C@@H]32)OCO4)cc(OC)c1O` (stereo partly drawn) returned a 50% inhibitory concentration (IC50) of over 1 µM.
With `COc1cc([C@@H]2c3cc4c(cc3[C@@H](CCN(C)CCN3CCOCC3)C3COC(=O)[C@@H]32)OCO4)cc(OC)c1O.Cl.Cl` (stereo partly drawn), the concentration for half-maximal inhibition (IC50) in assay [1] is 0.26 µM; in assay [2] it was 116 µM; in assay [3] it was over 167 µM.
For `COc1cc([C@@H]2c3cc4c(cc3[C@@H](CCN(C)CCCN(C)C)C3COC(=O)[C@@H]32)OCO4)cc(OC)c1O.Cl.Cl` (stereo partly drawn), in that order: 0.055 µM, 26.9 µM and over 100 µM.
Taken in the same sequence, the figures for `COc1cc([C@@H]2c3cc4c(cc3[C@@H](CCN3CCCCC3)C3COC(=O)[C@@H]32)OCO4)cc(OC)c1O.Cl` (stereo partly drawn) were 0.012 µM, 67.7 µM and over 167 µM.
Taken in the same sequence, the figures for `COc1cc([C@@H]2c3cc4c(cc3[C@@H](CCCO)C3COC(=O)[C@@H]32)OCO4)cc(OC)c1O` (stereo partly drawn) were 0.05 µM, 42.1 µM and 26 µM.
For the compound `COc1cc([C@@H]2c3cc4c(cc3[C@@H](CC(=O)NCc3ccncc3)C3COC(=O)[C@@H]32)OCO4)cc(OC)c1O.Cl` (stereo partly drawn), the values for the IC50 in assay [1] and in assay [3] were 2.2 µM and over 100 µM, respectively.
For `COc1cc([C@@H]2c3cc4c(cc3[C@@H](CC(=O)NCCN3CCOCC3)C3COC(=O)[C@@H]32)OCO4)cc(OC)c1O.Cl` (stereo partly drawn), in that order: 0.22 µM and over 100 µM.
For the compound `COc1cc([C@@H]2c3cc4c(cc3[C@@H](CCN(C)CCCCCCN(C)C)C3COC(=O)[C@@H]32)OCO4)cc(OC)c1O.Cl.Cl` (stereo partly drawn), the values for the half-inhibitory concentration (IC50) in assay [1], in assay [2] and in assay [3] were 0.037 µM, 30 µM and over 133 µM, respectively.
Taken in the same sequence, the figures for `COc1cc([C@@H]2c3cc4c(cc3[C@@H](CCN(C)Cc3ccccn3)C3COC(=O)[C@@H]32)OCO4)cc(OC)c1O.Cl.Cl` (stereo partly drawn) were 0.14 µM, 31.4 µM and over 100 µM.
For the compound `COc1cc([C@@H]2c3cc4c(cc3[C@@H](CCN(C)N3CCN(C)CC3)C3COC(=O)[C@@H]32)OCO4)cc(OC)c1O.Cl.Cl` (stereo partly drawn), the 50% inhibitory concentration (IC50) in assay [1] is 0.0043 µM; in assay [2], 32.3 µM; in assay [3] it was over 100 µM.
For the compound `COc1cc([C@@H]2c3cc4c(cc3[C@@H](CCN3CCC[C@@H]3CO)C3COC(=O)[C@@H]32)OCO4)cc(OC)c1O.Cl` (stereo partly drawn), the half-maximal inhibitory concentration (IC50) in assay [1] is 0.063 µM; in assay [2], 112 µM; in assay [3], over 62 µM.
As for `COc1cc([C@@H]2c3cc4c(cc3[C@@H](CCO)C3COC(=O)[C@@H]32)OCO4)cc(OC)c1O` (stereo partly drawn), the figures for the 50% inhibitory concentration (IC50) in assay [1], in assay [2] and in assay [3] were 0.05 µM, 13.8 µM and 2 µM, respectively.
Taken in the same sequence, the figures for `CCN(CC)CCN(C)CC[C@@H]1c2cc3c(cc2[C@@H](c2cc(OC)c(O)c(OC)c2)[C@H]2C(=O)OCC12)OCO3.Cl.Cl` (stereo partly drawn) were 0.037 µM, 53.8 µM and over 100 µM.
For `COc1cc([C@@H]2c3cc4c(cc3[C@@H](CCN(C)Cc3ccncc3)C3COC(=O)[C@@H]32)OCO4)cc(OC)c1O.Cl.Cl` (stereo partly drawn), in that order: 0.1 µM, 31.4 µM and over 100 µM.
Taken in the same sequence, the figures for `COc1cc([C@@H]2c3cc4c(cc3[C@@H](CCN(C)C(CO)CO)C3COC(=O)[C@@H]32)OCO4)cc(OC)c1O.Cl` (stereo partly drawn) were 0.66 µM, 25.1 µM and over 167 µM.
With `COCCN(C)CC[C@@H]1c2cc3c(cc2[C@@H](c2cc(OC)c(O)c(OC)c2)[C@H]2C(=O)OCC12)OCO3.Cl` (stereo partly drawn), the IC50 was 0.16 µM in assay [1], 75.8 µM in assay [2] and over 100 µM in assay [3].
Take `COc1cc([C@@H]2c3cc4c(cc3[C@@H](CC(=O)NCCc3cccn3C)C3COC(=O)[C@@H]32)OCO4)cc(OC)c1O.Cl` (stereo partly drawn): the IC50 was 1.5 µM in assay [1] and over 100 µM in assay [3].
Regarding `COc1cc([C@@H]2c3cc4c(cc3[C@@H](CCNCCN(C)C)C3COC(=O)[C@@H]32)OCO4)cc(OC)c1O.Cl.Cl` (stereo partly drawn), the IC50 was 0.04 µM in assay [1], 13.3 µM in assay [2] and over 100 µM in assay [3].
Turning to `COc1cc([C@@H]2c3cc4c(cc3[C@@H](CCN(C)C3CCCCC3)C3COC(=O)[C@@H]32)OCO4)cc(OC)c1O.Cl` (stereo partly drawn), the IC50 in assay [1] was 0.033 µM; in assay [2], 60.9 µM; in assay [3], over 167 µM.

Source of the values: ChEMBL document CHEMBL1127046, “Antitumor agents. 3. Synthesis and biological activity of 4 beta-alkyl derivatives containing hydroxy, amino, and amido groups of 4'-O-demethyl-4-desoxypodophyllotoxin as antitumor agents” (J Med Chem, 1993).
